Laboratory results published in paper PMC8746705, “Comparison of Experimental Strategies to Study L-Type Amino Acid Transporter 1 (LAT1) Utilization by Ligands” (Molecules, 2021).
Like-named read-outs stand apart in the source and are kept apart here.

How the values were obtained:
LAT1 [1] = target: T1, LAT1 (Mus musculus, UniProt Q9Z127); assay: Cis-inhibition of radiolabelled LAT1-probe substrate uptake into BV2 cells; format: cell-based; conditions: for IC50: 5 min, mean ± SD
Protocol: (§1) After removal of the culture medium, the BV2 cells were carefully washed with pre-warmed HBSS (Hank’s balanced salt solution) containing 125.0 mM choline chloride, 4.8 mM KCl, 1.2 mM MgSO4, 1.2 mM KH2PO4, 1.3 mM CaCl2, 5.6 mM glucose, and 25.0 mM HEPES (pH 7.4 adjusted with 1 M NaOH). Pre-incubation was done with 500 μL of pre-warmed HBSS at 37 °C for 10 min before adding substrates (250 μL in HBSS) for the uptake experiments.
The ability of compounds 1–15 to inhibit the uptake of a known LAT1 substrate [^14C]-L-leucine was then evaluated by incubating the cells at 37 °C for 5 min in uptake buffer pH 7.4 (250 μL) containing 0.2 µCi/mL of [^14C]-L-leucine, or 2 µCi/mL of [^3H]-L-methionine, [^3H]-L-tryptophan or [^3H]-L-kynurenine (PerkinElmer, Waltham, MA, USA) and 0.1–1000 μM of the studied compound (or HBSS as blank). After incubation, the uptake was stopped by adding 250 µL of ice-cold HBSS, and the cells were washed two times with ice-cold HBSS. The cells were then lysed with 500 μL of NaOH (0.1 M) for 60 min and the lysate was mixed with 3.5 mL of Emulsifier safe cocktail (Ultima Gold, PerkinElmer, Waltham, MA, USA). The radioactivity in the cells was measured by liquid scintillation counting (MicroBeta^2 counter, PerkinElmer Waltham, MA, USA). Half of the maximum inhibitory concentration (IC50) values were calculated by nonlinear regression analysis (fitting the curve to log (concentration) vs. remaining normalized […]).

LAT1 [2] = target: T1, LAT1; assay: Inhibition type of [14C]-L-Leu uptake (Hanes-Woolf plots) in BV2 cells; format: cell-based; conditions: for Vmax of [14C]-L-Leu uptake: 0.010–0.20 µM [14C]-L-Leu in the presence of the compound at its IC50, mean ± SD, n = 3–4; for Vmax of [14C]-L-Leu uptake / Inhibition Type: BV2; for Inhibition Type: of [14C]-L-Leu uptake, concluded from Km and Vmax
Protocol: as §1
To evaluate the inhibition type of studied compounds, the BV2 cells were incubated with 0.010–0.20 μM [^14C]-L-leucine together with the studied compound. The concentration of compounds was selected according to the compound-specific IC50 values. The experiment was then carried out as described for the [^14C]-L-leucine uptake above and the radioactivity was measured by liquid scintillation counting. Hanes-Woolf plots were created by setting the ratio of initial substrate concentration to the reaction velocity ([S]/v) against [^14C]-L-leucine concentration (µM). The linear regression was used to calculate Km value (negative value of x-intercept) and Vmax value (1/slope) for [^14C]-L-leucine.

[3] = tested on: immortalized mouse microglia (BV2); assay: Time-dependent cellular uptake of compounds into BV2 cells (LC-MS/MS); format: cell-based; conditions: for Max. cellular uptake: 100 µM compound, 1–60 min, mean ± SD, n = 3
Protocol: (§2) For the time-dependent cellular uptake experiments, the BV2 cells on 24-well plates were incubated with studied compounds (100 μM) in a pre-warmed HBSS buffer (250 μL) at 37 °C for 1–60 min. Subsequently, the cells were washed three times with an ice-cold HBSS and lysed with 250 μL of NaOH (0.1 M) for 60 min. The lysates were diluted with acetonitrile (ACN) including the selected internal standard (diclofenac to all compounds) with a ratio of 1:3 and centrifuged at 10,000× g for 10 min. The samples were analyzed by the liquid chromatography-tandem mass spectrometric (LC-MS/MS) methods as described below. The concentrations of each compound in cell lysates were calculated from the standard curve that was prepared by spiking known amounts of compounds to ACN including the selected internal standard and then normalized with protein concentration. The protein concentrations on each plate were determined as a mean of three samples by Bio-Rad Protein Assay, based on the Bradford dye-binding method, using bovine serum albumin (BSA) as a standard protein and measuring the absorbance (595 nm) by multiplate reader (EnVision, Perkin Elmer, Inc., Waltham, MA, USA).
(§3) The studied compounds (1–15) were analyzed by using Agilent 1200 Series Rapid Resolution LC System together with an Agilent 6410 Triple Quadrupole Mass Spectrometer equipped with an electrospray ionization source (Agilent Technologies, Santa Clara, CA, USA). The chromatographic separations of analytes were achieved by using a reversed-phase Zobrax SB-C18 column (50 mm × 2.1 mm, 1.8 μm; Agilent Technologies, Santa Clara, CA, USA) by eluting the samples with 0.1% formic acid in water (A) and 0.1% formic in ACN (B). Labetalol and diclofenac were used as internal standards (ISTD) for the prodrugs and parent drugs, respectively. The transitions used for the quantification at the positive ion mode and chromatographic conditions of each compound and their parent drugs are listed in Table S1. The methods of compounds 1–11 have been reported earlier, while the methods of compounds 12–15 are reported herein for the first time.

LAT1 [4] = target: T1, LAT1; assay: Concentration-dependent cellular uptake into BV2 cells, Eadie–Hofstee analysis, Transport Type 1 (LAT1); format: cell-based; conditions: 1–200 µM, 30 min, BV2; Eadie–Hofstee; mean ± SD, n = 3
Protocol: (§4) For the concentration-dependent cellular uptake experiments, the BV2 cells on 24-well plates were incubated with studied compounds (1–200 μM) in pre-warmed HBSS buffer (250 μL) at 37 °C for 30 min. The experiment was then carried out as described for the time-dependent uptake above and the concentration of studied compounds in the cell lysate was analyzed by the LC-MS/MS methods described above and the results were normalized to the total protein concentration. The distinct transport mechanisms were separated from the Michaelis-Menten kinetics by using Eadie–Hofstee plot.
as §3

LAT1 [5] = target: T1, LAT1; assay: Cellular uptake of compounds in the presence of LAT1-inhibitor (KMH-233); format: cell-based; conditions: 100 µM compound, 100 µM KMH-233, 30 min, BV2
Protocol: The competitive uptake in the presence of LAT1-inhibitor (KMH-233) was carried out as described above with HBSS buffer solution containing 100 µM of the studied compounds. The cells were pre-incubated with 100 µM LAT1-inhibitor for 10 min and the incubation mixture was removed before adding the studied compound and LAT1-inhibitor on the cells. The competitive uptake (30 min) with the inhibitor was then carried out as the normal uptake described above. The amounts of studied compounds were analyzed by the LC-MS method and calculated from the spiked standard curve and normalized with the protein concentrations.

LAT1 [6] = target: T1, LAT1; design: method as in earlier work; conditions: BV2 cells; probe [14C]-L-Leu; mean ± SD; published earlier; ref [31] or [33]; read-out: IC50 of [14C]-L-Leu uptake; cited from earlier work
[7] = Time-dependent cellular uptake of compounds into BV2 cells (LC-MS/MS); format: cell-based, mouse; conditions: mouse, BV2 microglia cells, 100 µM compound, 1–60 min, mean ± SD, n = 3, read-out: T½ of cellular uptake
Protocol: as §2, §3

Transport Type 2 = assay: Concentration-dependent cellular uptake into BV2 cells, Eadie–Hofstee analysis, Transport Type 2; format: cell-based, mouse; conditions: 1–200 µM, 30 min, mean ± SD, n = 3
Protocol: as §4, §3

LAT1 [8] = target: T1, LAT1; assay: Cellular uptake of L-leucine after pre-incubation of BV2 cells with the compounds; format: cell-based; conditions: 100 µM (L-glutamine 2 mM) pre-incubated 10 min or 3 h, L-leucine 1–400 µM, 5 min
Protocol: The ability of compounds 1–15 to affect the uptake of a known LAT1 substrate L-leucine was evaluated by pre-incubating the BV2 cells at 37 °C for 10 min or 3 h with uptake buffer pH 7.4 (250 μL) containing 100 µM of compounds 1–15 or thyroxin (T4), or known nuclear receptor inducible compounds, phenobarbital (constitutive androstane receptor, CAR), and dexamethasone (pregnane X receptor, PXR) as controls. […] After incubation, the reaction was stopped by adding 250 µL of ice-cold HBSS, and the cells were washed two times with ice-cold HBSS. The cells were then lysed with 500 μL of 0.1 M NaOH (60 min) and the lysate was mixed with 3.5 mL of Emulsifier safe cocktail (Ultima Gold, PerkinElmer, Waltham, MA, USA). The radioactivity in the cells was measured by liquid scintillation counting (MicroBeta^2 counter, PerkinElmer Waltham, MA, USA). The results were multiplied by the amount of un-labeled proportion of L-leucine in each sample.

LAT1 [9] = assay: Quantitative expression of LAT1 on the BV2 plasma membrane (LC-MS proteomics); format: cell-based, mouse; conditions: BV2 cells incubated 24 h; normalized to Na+/K+ATPase; compared to untreated control
Protocol: The protein expression levels of LAT1, in the plasma membrane fractions of BV2 cells were quantified using multiplexed MRM analysis according to the protocol described by Uchida et al.. First, the crude membrane fractions were isolated from three distinct sets of cell culture plates using Membrane Protein Extraction Kit (BioVision Incorporated, Milpitas, CA, USA) according to the manufacturer’s instructions. The protein content for each fraction was measured by Bio-Rad Protein Assay, based on the Bradford dye-binding method (EnVision, Perkin Elmer, Inc., Waltham, MA, USA). A total amount of 50 µg protein from each fraction was solubilized/denatured in 7 M guanidine hydrochloride, 0.5 M Tris-HCl and 10 mM EDTA-Na. The proteins were then reduced by dithiothreitol (1:50, w/w) and S-carboxymethylated by iodoacetamide (1:20, w/w). The alkylated proteins were precipitated by methanol/chloroform/water (4:1:3) and centrifuged at 18,000× g for 5 min at 4 °C. The pellet was resuspended in 6 M urea and mixed for 10 min at room temperature before the dilution with 0.1 M Tris-HCl (pH 8.5) to a final concentration of 1.2 M urea, and dissolved completely by intermittent sonication (Branson 3510, Danbury, CT, USA). The dissolved proteins were first digested with LysC (1/100, w/w) and 0.05% ProteaseMax (Promega Biotech AB, Nacka, Sweden) for 3 h at room temperature. Then, the samples were spiked with 10 µL (30 fmol) of the labelled peptides for absolute quantification (JPT Peptide Technologies GmbH, Berlin, Germany) (Table S2). The samples were incubated with (1/100, w/w) TPCK-Trypsin (Promega Biotech AB, Nacka, Sweden) for 18 h at 37 °C. The tryptic digestion was then quenched by adding 40 µL of 5% formic acid. The samples were then centrifuged at 18,000× g for 5 min at 4 °C, and the supernatants were transferred to vials for analysis.
The digested peptides were analyzed using an ultra-performance liquid chromatography system coupled with a triple quadrupole mass spectrometer with a heated electrospray ionization source in the positive mode (UPLC 1290 and MSD 6495, Agilent Technologies, Santa Clara, CA, USA). A total amount of 20 µL of the digested peptides (10 µg) was separated using AdvanceBio Peptide Map 2.1 × 250 mm, 2.7 μm column (Agilent Technologies, Santa Clara, CA, USA) and LC eluents of 0.1% formic acid in water (A) and acetonitrile (B). The peptides were eluted following a constant flow rate of 0.3 mL/min and a gradient of 2–7% B for 2 min, followed by 7–30% B for 48 min, 30–45% B for 3 min, and 45–80% B for 2.5 min before re-equilibrating the column again for 4.5 min. LAT1 was quantified based on the ratio between the light and heavy standard peptides, as described previously (Table S2). Data was acquired using Agilent MassHunter Workstation Acquisition (Agilent Technologies, Data Acquisition for Triple Quadrupole, version B.03.01) and processed by using Skyline software (version 20.1). The results were normalized to a housekeeping protein Na+/K+ATPase and expressed as fmol/µg of the total amount of protein in the samples.

[10] = probe [3H]-L-Kynu, n = 3–4, read-out: IC50 of [3H]-L-Kynu uptake
[11] = probe [3H]-L-Met, n = 3–4, read-out: IC50 of [3H]-L-Met uptake
[12] = probe [3H]-L-Trp, n = 3–4, read-out: IC50 of [3H]-L-Trp uptake

T1 sequence (Q9Z127 whole entry): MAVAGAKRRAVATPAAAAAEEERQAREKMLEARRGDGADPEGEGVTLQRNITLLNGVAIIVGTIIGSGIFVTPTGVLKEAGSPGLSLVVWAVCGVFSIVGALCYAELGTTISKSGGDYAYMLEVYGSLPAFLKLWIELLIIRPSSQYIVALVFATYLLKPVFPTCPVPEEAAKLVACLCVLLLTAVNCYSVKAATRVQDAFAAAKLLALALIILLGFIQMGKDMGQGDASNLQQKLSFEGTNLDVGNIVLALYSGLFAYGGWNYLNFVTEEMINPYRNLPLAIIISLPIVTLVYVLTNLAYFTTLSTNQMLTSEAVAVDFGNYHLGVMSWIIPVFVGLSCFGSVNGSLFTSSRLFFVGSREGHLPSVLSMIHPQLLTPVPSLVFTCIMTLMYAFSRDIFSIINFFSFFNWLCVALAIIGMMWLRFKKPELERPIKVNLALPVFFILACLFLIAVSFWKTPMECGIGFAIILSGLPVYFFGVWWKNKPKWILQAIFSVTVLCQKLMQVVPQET
T1 sequence (P10852 whole entry partner): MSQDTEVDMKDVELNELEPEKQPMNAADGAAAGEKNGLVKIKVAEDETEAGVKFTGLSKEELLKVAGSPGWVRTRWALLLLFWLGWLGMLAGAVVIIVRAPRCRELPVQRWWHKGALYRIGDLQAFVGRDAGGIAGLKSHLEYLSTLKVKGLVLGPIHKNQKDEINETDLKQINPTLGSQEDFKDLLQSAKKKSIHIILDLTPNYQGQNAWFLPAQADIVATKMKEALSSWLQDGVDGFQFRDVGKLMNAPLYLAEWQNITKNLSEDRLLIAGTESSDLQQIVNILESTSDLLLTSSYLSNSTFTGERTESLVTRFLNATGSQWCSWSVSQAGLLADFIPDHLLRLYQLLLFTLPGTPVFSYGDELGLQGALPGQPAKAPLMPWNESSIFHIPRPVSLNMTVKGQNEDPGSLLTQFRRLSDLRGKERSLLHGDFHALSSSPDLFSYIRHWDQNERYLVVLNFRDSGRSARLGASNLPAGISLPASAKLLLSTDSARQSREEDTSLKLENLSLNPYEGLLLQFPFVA

IC50 (LAT1 [1]; [10])	IC50 (LAT1 [1]; [11])	IC50 (LAT1 [1]; [12])	Vmax of [14C]-L-Leu uptake (LAT1 [2])	IC50 (LAT1 [2]; Table 2, compound concentration used in the inhibition type study, corresponding to IC50 of [14C]-L-Leu uptake)	Inhibition Type (LAT1 [2])	Km (LAT1 [4])	Transport Type 1 (LAT1) Vmax (LAT1 [4])	Cellular uptake in the presence of LAT1-inhibitor (LAT1 [5])	Inhibition of LAT1-probe substrate uptake / LAT1 affinity (LAT1 [1]; over all probe substrates)	IC50 (LAT1 [1]; probe [14C]-L-Leu, n = 3–4, read-out: IC50 of [14C]-L-Leu uptake)	half-life at 100 μM [7]	SMILES	Max. cellular uptake [3]	LAT1-substrate or LAT1-binder ([3]; concluded from time-dependent uptake, 100 µM)	IC50 (LAT1 [6])	Km (Transport Type 2)	Transport Type 2 Vmax (Transport Type 2)	Effect on cellular uptake of L-Leu after pre-incubation (LAT1 [8])	LAT1 expression on the plasma membrane (LAT1 [9])
1.8 ± 1.2 µM	10.4 ± 1.5 µM	14 ± 1.2 µM	1.515 ± 0.125 nmol/min/mg	10 µM	Non-competitive	2.6 ± 1.2 µM	53 ± 8 pmol/mg/min	only reductive trends were seen				COc1ccc2cc([C@H](C)C(=O)Nc3cccc(C[C@H](N)C(=O)O)c3)ccc2c1 [Compound 11]	4.48 ± 0.37 nmol/mg of protein	LAT1-binders rather than substrates	9 ± 1.1 µM				
11.9 ± 1.3 µM	17.1 ± 1.9 µM	39.2 ± 1.5 µM	2.851 ± 0.035 nmol/min/mg		Non-competitive	1.9 ± 0.3 µM	3.7 ± 0.5 pmol/mg/min	inhibited significantly	lower affinity and higher IC50 values	26 ± 1.1 µM	1.5 ± 0.67 min	CC(C(=O)Nc1ccc(CC(N)C(=O)O)cc1)c1cccc(C(=O)c2ccccc2)c1 (centres unmarked) [Compound 3]	1.96 ± 0.14 nmol/mg of protein			148 ± 41 µM	49 ± 9 pmol/mg/min	decreased the amount of L-Leu inside the cells	
												N[C@@H](Cc1cc(I)c(Oc2cc(I)c(O)c(I)c2)c(I)c1)C(=O)O [Compound T4, thyroxin, reference compound]						induced the uptake of L-Leu	downregulated LAT1 expression
